Laboratory results taken from PMC12472391, “Borylated Five-Membered Ring Iminosugars: Synthesis, Spectroscopic Analysis, and Biological Evaluation for Glycosidase Inhibition and Anticancer Properties for Application in Boron Neutron Capture Therapy (BNCT)—Part 1” (Pharmaceuticals, 2025).

Experiments:
Format in all cases: biochemical
[1] = target: β-D-galactosidase (E. coli) (Escherichia coli, UniProt P00722); test: Glycosidase inhibition, Table 6 footnote; conditions: read-out: β-D-galactosidase (E. coli), inhibition % at 100 μM
panel of 15 glycosidases = test: Glycosidase inhibition, whole panel of Table 6; conditions: at 100 or 1000 μM
From the text: The enzymes α-D-glucosidase (from yeast), β-D-glucosidases (from almond and bovine liver), α-D-galactosidase (from coffee beans), β-D-galactosidase (from bovine liver), α-D-mannosidase (from Jack bean), β-D-mannosidase (from snail), α-L-rhamnosidase (from Penicillium decumbens), α-L-fucosidase (from bovine kidney), trehalase (from porcine kidney), β-D-glucuronidases (from E. coli and bovine liver), amyloglucosidase (from A. niger), para-nitrophenyl glycosides, and various disaccharides were purchased from Sigma-Aldrich Co. (St. Louis, MO, USA).
Brush border membranes were prepared from the rat small intestine according to the method of Kessler et al., and were assayed at pH 6.8 for rat intestinal maltase using maltose. For rat intestinal maltase, porcine kidney trehalase, and A. niger amyloglucosidase activities, the reaction mixture contained maltose (25 mM) and the appropriate amount of enzyme, and the incubations were performed for 10–30 min at 37 °C. The reaction was stopped by heating at 100 °C for 3 min. […] The absorbance at 505 nm was measured to determine the amount of the released D-glucose. Other glycosidase activities were determined using an appropriate para-nitrophenyl glycoside as substrate at the optimum pH of each enzyme. […] The released para-nitrophenol was measured spectrometrically at 400 nm. […]

[2] = target: α-D-glucosidase (human lysosome) (Homo sapiens, UniProt P10253); test: Glycosidase inhibition, Table 6 footnote
[3] = tested on: N-acetyl-β-D-hexosaminidase (rat intestine); test: Glycosidase inhibition, Table 7; conditions: 1 mg/mL aqueous solution added, 27 °C, run in water
Experimental: (§1) All enzymes and para-nitrophenyl substrates were purchased from Sigma. Enzymes were assayed at 27 °C in citric acid (0.1M)/disodium hydrogen phosphate (0.2 M) buffers at the optimum pH for the enzyme. The incubation mixture consisted of […] enzyme solution, […] of 1 mg/mL aqueous solution of extract, and […] of the appropriate 5 mM para-nitrophenyl substrate made up in buffer at the optimum pH for the enzyme. The reactions were stopped by the addition of […] 0.4 M glycine (pH 10.4) during the exponential phase of the reaction, which had been determined at the beginning using uninhibited assays in which water replaced the inhibitor. Final absorbances were read at 405 nm using a Versamax microplate reader (Molecular Devices). Assays were carried out in triplicate, and the values given are the means of the three replicates per assay. All reactions run in water.

[4] = tested on: α-D-glucosidase (rat intestine); test: Glycosidase inhibition, Table 7; conditions: 1 mg/mL aqueous solution added, 27 °C, run in water
Experimental: as §1

[5] = target: β-D-glucosidase (human lysosome) (Homo sapiens, UniProt P04062); test: Glycosidase inhibition, Table 6 footnote
[6] = tested on: N-acetyl-β-D-glucosaminidase (bovine kidney); test: Glycosidase inhibition, Table 7; conditions: 1 mg/mL aqueous solution added, 27 °C, run in water
Experimental: as §1

[7] = target: T1, α-D-mannosidase (Jack bean) (Canavalia ensiformis, UniProt C0HJB3); test: Glycosidase inhibition, Table 7; conditions: 1 mg/mL aqueous solution added, 27 °C, run in water; for inhibition at 1000 µg/mL (stock): read-out: α-D-Mannosidase Jack Bean, percentage inhibition
T1 construct: purchased Sigma
T1 sequence (C0HJB3 1-981): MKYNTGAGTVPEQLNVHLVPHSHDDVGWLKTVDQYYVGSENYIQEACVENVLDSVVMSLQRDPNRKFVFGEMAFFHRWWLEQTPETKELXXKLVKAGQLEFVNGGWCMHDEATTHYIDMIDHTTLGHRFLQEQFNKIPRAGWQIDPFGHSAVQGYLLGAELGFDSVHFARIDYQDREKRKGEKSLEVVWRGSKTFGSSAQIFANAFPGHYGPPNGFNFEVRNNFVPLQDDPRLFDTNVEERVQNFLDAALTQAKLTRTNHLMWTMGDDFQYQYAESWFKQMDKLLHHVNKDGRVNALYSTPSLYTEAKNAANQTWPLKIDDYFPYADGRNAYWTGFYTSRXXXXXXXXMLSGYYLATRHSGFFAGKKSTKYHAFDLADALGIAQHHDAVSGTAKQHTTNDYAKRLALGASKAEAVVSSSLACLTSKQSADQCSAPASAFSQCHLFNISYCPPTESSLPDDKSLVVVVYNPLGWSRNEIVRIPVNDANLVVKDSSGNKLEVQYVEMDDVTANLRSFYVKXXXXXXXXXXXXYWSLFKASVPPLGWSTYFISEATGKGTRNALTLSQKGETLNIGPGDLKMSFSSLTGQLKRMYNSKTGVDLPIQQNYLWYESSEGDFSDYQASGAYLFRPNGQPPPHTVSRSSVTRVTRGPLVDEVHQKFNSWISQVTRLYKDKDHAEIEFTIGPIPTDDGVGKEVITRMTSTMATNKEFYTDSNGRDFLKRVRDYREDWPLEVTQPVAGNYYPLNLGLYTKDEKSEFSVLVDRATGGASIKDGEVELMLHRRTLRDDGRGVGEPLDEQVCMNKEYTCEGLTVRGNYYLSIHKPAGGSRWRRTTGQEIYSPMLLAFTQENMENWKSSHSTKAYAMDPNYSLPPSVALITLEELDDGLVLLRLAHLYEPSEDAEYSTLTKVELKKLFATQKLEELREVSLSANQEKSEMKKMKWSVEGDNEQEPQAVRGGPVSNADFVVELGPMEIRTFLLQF
Experimental: as §1

[8] = tested on: α-D-glucosidase (Bacillus); test: Glycosidase inhibition, Table 7; conditions: 1 mg/mL aqueous solution added, 27 °C, run in water
Experimental: as §1

Chain of β-D-galactosidase (E. coli) (P00722 2-1024): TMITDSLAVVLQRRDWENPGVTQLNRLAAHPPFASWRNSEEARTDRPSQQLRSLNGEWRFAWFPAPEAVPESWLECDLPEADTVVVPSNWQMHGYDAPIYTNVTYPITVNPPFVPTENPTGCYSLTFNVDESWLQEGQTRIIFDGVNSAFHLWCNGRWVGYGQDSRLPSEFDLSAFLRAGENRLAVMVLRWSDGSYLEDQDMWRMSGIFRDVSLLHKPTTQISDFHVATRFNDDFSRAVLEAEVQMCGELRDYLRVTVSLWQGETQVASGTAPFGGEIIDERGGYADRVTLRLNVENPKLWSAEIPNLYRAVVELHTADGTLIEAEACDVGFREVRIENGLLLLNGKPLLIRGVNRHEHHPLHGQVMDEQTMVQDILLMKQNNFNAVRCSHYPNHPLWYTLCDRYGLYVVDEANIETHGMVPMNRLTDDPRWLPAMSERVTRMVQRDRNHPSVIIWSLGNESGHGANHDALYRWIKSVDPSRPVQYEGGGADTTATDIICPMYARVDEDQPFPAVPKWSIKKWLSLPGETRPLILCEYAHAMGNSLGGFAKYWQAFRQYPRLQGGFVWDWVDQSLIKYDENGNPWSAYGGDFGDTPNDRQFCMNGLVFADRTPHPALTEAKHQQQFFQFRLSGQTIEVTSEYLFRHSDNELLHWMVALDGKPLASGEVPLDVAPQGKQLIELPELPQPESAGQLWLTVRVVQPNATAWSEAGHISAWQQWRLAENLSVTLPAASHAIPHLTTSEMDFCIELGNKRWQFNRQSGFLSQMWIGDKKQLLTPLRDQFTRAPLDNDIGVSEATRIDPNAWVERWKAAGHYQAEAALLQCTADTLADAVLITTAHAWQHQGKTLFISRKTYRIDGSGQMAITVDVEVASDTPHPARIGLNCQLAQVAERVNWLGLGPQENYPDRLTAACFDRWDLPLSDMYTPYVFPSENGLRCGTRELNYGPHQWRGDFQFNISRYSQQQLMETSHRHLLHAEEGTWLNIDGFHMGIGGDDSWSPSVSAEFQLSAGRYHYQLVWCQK
Chain of β-D-glucosidase (human lysosome) (P04062 40-536): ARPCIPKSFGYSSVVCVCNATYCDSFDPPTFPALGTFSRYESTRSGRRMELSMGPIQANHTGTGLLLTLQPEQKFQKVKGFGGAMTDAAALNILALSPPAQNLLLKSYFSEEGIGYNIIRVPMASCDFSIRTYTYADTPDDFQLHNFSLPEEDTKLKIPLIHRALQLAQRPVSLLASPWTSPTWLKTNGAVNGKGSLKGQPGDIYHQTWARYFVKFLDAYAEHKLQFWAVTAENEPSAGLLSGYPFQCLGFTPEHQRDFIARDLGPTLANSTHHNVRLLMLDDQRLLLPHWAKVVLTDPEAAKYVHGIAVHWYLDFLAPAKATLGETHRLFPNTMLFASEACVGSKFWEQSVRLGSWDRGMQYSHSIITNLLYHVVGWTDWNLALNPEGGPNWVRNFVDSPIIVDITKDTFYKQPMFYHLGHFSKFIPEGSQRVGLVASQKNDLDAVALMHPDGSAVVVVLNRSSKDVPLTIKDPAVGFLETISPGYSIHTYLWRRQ

Compound | N-Acetyl-β-D-hexosaminidase Rat Intestine, percentage inhibition [3] | N-Acetyl-β-D-glucosaminidase Bovine Kidney, percentage inhibition [6] | inhibition at 1000 µg/mL (stock) [7] | α-D-Glucosidase Bacillus, percentage inhibition [8] | also measured
OC[C@H](O)[C@@H]1[C@H](O)[C@H](O)CN1Cc1ccccc1 [Compound 5, N-Benzyl-1,4-dideoxy-1,4-imino-L-gulitol] | −1.5% |  |  |  | inhibition at 100 µM [1]: 0%; percent inhibitions in the panel (Table 6) (panel of 15 glycosidases): do not provide a strong degree of inhibition; inhibition at 100 µM [2]: 0%; α-D-Glucosidase Rat Intestine, percentage inhibition [4]: −1.3%; inhibition at 100 µM [5]: 2.91%
N[C@@H](Cc1ccc(B(O)O)cc1)C(=O)O [BPA, 4-borono-L-phenylalanine, reference compound] |  | 6.7% | 0.6% | 19.9% | 
OC[C@H](O)[C@@H]1[C@H](O)[C@H](O)CN1Cc1ccc(B(O)O)cc1 [para 8, N-(4-Methylphenylboronic acid)-1,4-dideoxy-1,4-imino-L-gulitol] | 2.6% |  |  |  | 
OC1O[C@@H]2[C@H]([C@H]1O)N(Cc1ccccc1)C[C@H]2O (stereo partly drawn) [Compound 4, N-Benzyl-3,6-dideoxy-3,6-imino-D-gulofuranose] |  | −9.1% | -12.1% | −37.9% | 
CC1(C)O[C@H]2O[C@H]3[C@@H]([C@H]2O1)N(Cc1ccc(B2OC(C)(C)C(C)(C)O2)cc1)C[C@H]3O [para 6, N-(4-Methylphenylboronic acid pinacol ester)-3,6-dideoxy-3,6-imino-1,2-O-isopropylidene-α-D-gulofuranose] |  |  |  |  | percent inhibitions in the panel (Table 6) (panel of 15 glycosidases): do not provide a strong degree of inhibition
N[C@@H](Cc1ccc(B(O)O)cc1)C(=O)O [^10B-BPA, reference compound] |  | 6.3% |  | 19.5% | α-D-Mannosidase Jack Bean, percentage inhibition [7]: −0.7%
CC1(C)O[C@H]2O[C@H]3[C@@H]([C@H]2O1)N(Cc1ccccc1)C[C@H]3O [Compound 3, N-Benzyl-3,6-dideoxy-3,6-imino-1,2-O-isopropylidene-α-D-gulofuranose] |  | −0.1% | -30.6% | −43.2% | 
borocaptate sodium [BSH, reference compound] |  | 37.1% |  | 48.1% | α-D-Mannosidase Jack Bean, percentage inhibition [7]: −18.7%
OB(O)c1ccc(CN2CC(O)C3OC(O)C(O)C32)cc1 [para 7, N-(4-Methylphenylboronic acid)-3,6-dideoxy-3,6-imino-D-gulofuranose] | 4.4% |  |  |  | α-D-Glucosidase Rat Intestine, percentage inhibition [4]: −5.4%
